In ChEMBL document CHEMBL5346896, “Development of indolealkylamine derivatives as potential multi-target agents for COVID-19 treatment” (Eur J Med Chem, 2023):

System: SARS-CoV-2
Experiment: Antiviral activity against SARS-CoV-2 spike pseudotyped lentivirus infected in HEK293 cells expressing human ACE2 assessed as inhibition of viral entry into cells at highest concentration preincubated with cell for 1 hrs followed by viral infection for 1 hrs and further replaced with fresh medium and measured 48 hrs post transduction by luminescence based luciferase reporter assay relative to …
Format: functional, Severe acute respiratory syndrome coronavirus 2, HEK293T
Conditions: time 2 hrs

Structure (SMILES) | inhibition (INH) [%]
COc1ccc2[nH]c(C(O)c3ccc(Cl)cc3)c(CCNC(C)=O)c2c1 (configuration not stated) | 70
COC(=O)NCCc1c(C(O)c2ccccc2)[nH]c2ccc(OC)cc12 (configuration not stated) | 70
